{"source": "paper PMC7900953", "about": "“Location of a single histidine within peptide carriers increases mRNA delivery” (The Journal of Gene Medicine, 2020)", "test_system": "MDA‐MB‐231 cells", "assay": "mRNA transfection with HK lipopolyplexes (HK peptide + DOTAP liposomes)", "format": "cell-based", "conditions": "HK 4 μg, mRNA 1 μg, DOTAP 1 μg; luciferase 24 h", "experimental": "Transfection with HK lipopolyplexes was carried out in a manner similar to that described above, with a few exceptions. In brief, the HK peptide (4 μg) in Opti‐MEM was mixed initially with mRNA (1 μg) for 30 minutes. This was followed by adding the DOTAP cationic liposome (1,2‐dioleoyl‐3‐trimethyl ammonium‐propane; 1 μg; Roche, Basel, Switzerland) for an additional 30 minutes. The Opti‐MEM mixture (50 μl) was then added dropwise to the cells.\nFIGURE 8 Comparison of mRNA transfection with DOTAP and several HK peptides. To form lipopolyplexes, the HK peptides (4 μg) in Opti‐MEM were initially mixed with mRNA (1 μg) for 30 minutes. DOTAP liposomes (1 μg) were then added, gently mixed and allowed to stand for an additional 30 min. Polyplexes were prepared as described previously. These complexes in Opti‐MEM (50 μl) were then added to the cells and, 24 hours later, the luciferase activity was measured. *p < 0.05; **p < 0.01; ***p < 0.001\nFigure S4. Transfection of mRNA (1 µg) with HK peptides (4 µg) and/or DOTAP liposomes (1 µg). Cells were transfected with mRNA lipoplexes, polyplexes, or lipopolyplexes as described in the Material and Methods section, and twenty-four h later, the luciferase activity was measured. ***, P<0.001; ****, P<0.0001"}
{"substance": "R = KHHHKHHHKHHHHKHHHK [H3K(+H)4b, four‐branched analogue of H3K4b with one extra histidine in the second ‐HHHK‐ motif]", "values": [{"measurement": "mRNA carrier effectiveness compared with DOTAP liposomes", "result": "significantly better carriers of mRNA than the DOTAP liposomes"}]}
